Experimental data as given in article PMC11110727, “Exploiting thiol-functionalized benzosiloxaboroles for achieving diverse substitution patterns – synthesis, characterization and biological evaluation of promising antibacterial agents” (RSC Medicinal Chemistry, 2024).
≈ marks a conversion by molar mass, not a printed value. Read-outs that look alike come from different tables or passages of the source.

Tests used:
[1] = system: Human normal lung fibroblasts MRC-5; assay: MTT-based viability (cytotoxicity) assay; settings: for IC50: Homo sapiens, MRC5, 48 h
How it was run: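 MRC-5 pd30 human lung fibroblasts in supplemented MEME at 37 °C, 5% CO2; viability by MTT, absorbance 570 nm, triplicate, as percent of control cells. Selectivity index taken as IC50/MIC against S. aureus MRSA strains.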

[2] = system: K. pneumoniae ATCC 13883; assay: Antibacterial activity: MIC/MBC, MIC with PAβN, disc-diffusion; type: cell-based, Klebsiella pneumoniae; settings: for MIC: Klebsiella pneumoniae, ATCC13883; for -fold reduction of MIC in the presence of PAβN: PAβN 20 μg mL^−1, MHB + 1 mM MgSO4
How it was run: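 MICs were measured by CLSI broth microdilution in Mueller–Hinton II broth, with or without the efflux-pump inhibitor PAβN (20 μg mL^−1) and with 1 mM MgSO4 present. A reduction of at least 4-fold with PAβN was counted as significant. Disc diffusion followed EUCAST/CLSI, MBC followed CLSI, and compounds were dissolved in DMSO.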

[3] = system: C. albicans ATCC 90028; assay: Antifungal activity: MIC/MFC, disc-diffusion; type: cell-based, Candida albicans; settings: Candida albicans, ATCC90028
How it was run: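 Yeasts are grown twice on Sabouraud dextrose agar and bacteria twice on tryptic soy agar (30 °C, 24–48 h). MIC and disc-diffusion testing follow EUCAST/CLSI, and fungicidal or bactericidal activity follows CLSI. Compounds are dissolved in DMSO.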

[4] = system: S. aureus NMI 1576 K MRSA; assay: Antibacterial activity against clinical MRSA: MIC/MBC; type: cell-based; settings: Staphylococcus aureus
Method: Direct antimicrobial activity was determined against the following standard strains: (1) Gram-positive cocci: methicillin-sensitive Staphylococcus aureus ATCC 6538P (MSSA), methicillin-resistant S. aureus subsp. aureus ATCC 43300 (MRSA), S. epidermidis ATCC 12228, Enterococcus faecium ATCC 6057, E. faecalis ATCC 29212, Bacillus subtilis ATCC 6633; (2) Gram-negative bacteria from Enterobacteriales order: Klebsiella pneumoniae ATCC 13883, Escherichia coli ATCC 25922, Enterobacter cloacae DSM 6234, Proteus mirabilis ATCC 12453, Serratia marcescens ATCC 13880; (3) Gram-negative non-fermentative rods: Acinetobacter baumannii ATCC 19606, Pseudomonas aeruginosa ATCC 27853, Stenotrophomonas maltophilia ATCC 12714, S. maltophilia ATCC 13637, Burkholderia cepacia ATCC 25416, Bordetella bronchiseptica ATCC 4617; (4) yeasts: Candida albicans ATCC 90028, C. krusei ATCC 6258, C. parapsilosis ATCC 22019, C. tropicalis (Castellani) Berkhout ATCC 750, C. tropicalis IBA 171, C. guilliermondii IBA 155, and Saccharomyces cerevisiae ATCC 9763. Moreover, 5 clinical strains of methicillin-resistant S. aureus were also included: NMI 664 K, NMI 1576 K, NMI 1712 K, NMI 1991 K, and NMI 2541 K. All strains were stored at −80 °C. Prior to testing, each bacterial strain was subcultured twice on tryptic soy agar TSA (bioMerieux) medium and yeast strains on Sabouraud dextrose agar (bioMerieux) for 24–48 h at 30 °C to ensure viability. The antimicrobial activity was evaluated as previously described[26] by the disc-diffusion method and the MIC determination assays according to the EUCAST (ref. [71] and [72]) and CLSI (ref. [53] and [73]) recommendations. Assessment of bactericidal (MBC) and fungicidal (MFC) activities was performed according to the CLSI recommendations.[54,74] The following reference agents were used: fluconazole (in the case of fungi), linezolid (for Gram-positive bacteria), and nitrofurantoin (for Gram-negative rods). The new benzosiloxaboroles were dissolved in DMSO (Sigma).

[5] = system: S. aureus ATCC 6538P; assay: Antibacterial activity: MIC/MBC determination and disc-diffusion; type: cell-based, Staphylococcus aureus; settings: for diameter of inhibition zone: disc-diffusion, — = zone not observed; for MBC / MIC: Staphylococcus aureus, ATCC6538P
How it was run: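 Strains were subcultured twice for 24–48 h at 30 °C, on TSA for bacteria and Sabouraud dextrose agar for yeasts. Disc-diffusion and MIC followed EUCAST/CLSI recommendations, and MBC/MFC followed CLSI. Compounds were dissolved in DMSO, with fluconazole or linezolid as references.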

[6] = K. pneumoniae ATCC 13883, read-out: MIC
[7] = NMI 1576 K MRSA, read-out: MBC (first MBC where Eagle effect)
[8] = NMI 1576 K MRSA, read-out: second MBC (Eagle effect)
[9] = S. aureus ATCC 6538P, read-out: MBC (first MBC where Eagle effect)
[10] = S. aureus ATCC 6538P, read-out: MIC
[11] = S. aureus ATCC 6538P, value after the slash, read-out: second MBC (Eagle effect)

Compound | viability of MRC-5 ([1]; 6.25 µg·mL−1, 48 h) | viability of MRC-5 ([1]; 12.5 µg·mL−1, 48 h) | viability of MRC-5 ([1]; 25 µg·mL−1, 48 h) | viability of MRC-5 ([1]; 50 µg·mL−1, 48 h) | viability of MRC-5 ([1]; 100 µg·mL−1, 48 h) | viability of MRC-5 ([1]; 200 µg·mL−1, 48 h) | viability of MRC-5 ([1]; 400 µg·mL−1, 48 h) | IC50 [1] [µg/mL] | MIC [2, 6] [µg/mL] | MIC ([3]; read-out: MIC) [µg/mL] | MBC [4, 7] [µg/mL] | MIC ([4]; NMI 1576 K MRSA, read-out: MIC) [µg/mL] | MBC [4, 8] [µg/mL] | diameter of inhibition zone ([5]; S. aureus ATCC 6538P) [mm] | MBC [5, 9] [µg/mL] | MIC [5, 10] [µg/mL] | MBC [5, 11] [µg/mL] | further results
C[Si]1(C)OB(O)c2cc(F)c(SCCC#N)c(F)c21 [Compound 6, 3-((5,7-Difluoro-3-hydroxy-1,1-dimethyl-1,3-dihydrobenzo[c][1,2,5]oxasilaborol-6-yl)thio)propanenitrile] | 104.0±5.7 % of control ± SD | 112.1±1.8 % of control ± SD | 104.7±6.7 % of control ± SD | 108.3±3.0 % of control ± SD | 90.4±0.5 % of control ± SD | 43.6±5.1 % of control ± SD | 29.5±5.8 % of control ± SD | 140 (≈ 468 µM) | > 400 | > 400 | 25 (≈ 83.6 µM) | 12.5 (≈ 41.8 µM) | > 400 | 30 | 12.5 (≈ 41.8 µM) | 6.25 (≈ 20.9 µM) | > 400 | –
C[Si]1(C)OB(O)c2cc(F)c(SC3CC(=O)NC3=O)c(F)c21 (stereo not shown) [Compound 12, 3-((5,7-Difluoro-3-hydroxy-1,1-dimethyl-1,3-dihydrobenzo[c][1,2,5]oxasilaborol-6-yl)thio)pyrrolidine-2,5-dione] | 103.0±1.5 % of control ± SD | 104.4±1.9 % of control ± SD | 94.9±2.3 % of control ± SD | 86.1±6.9 % of control ± SD | 76.4±3.5 % of control ± SD | 46.9±2.7 % of control ± SD | 0.4±0.2 % of control ± SD | 167 (≈ 488 µM) | 400 (≈ 1170 µM) | > 400 | 100 (≈ 291 µM) | 6.25 (≈ 18.2 µM) | – | 20 | 100 (≈ 291 µM) | 6.25 (≈ 18.2 µM) | – | diameter of inhibition zone ([2]; K. pneumoniae ATCC 13883, (-) = zone not observed, paper discs 9 mm): 17 mm; -fold reduction of MIC in the presence of PAβN ([2]; K. pneumoniae ATCC 13883): 4 -fold
C[Si]1(C)OB(O)c2cc(F)c(SCCS(=O)(=O)c3ccccc3)c(F)c21 [Compound 20, 5,7-Difluoro-1,1-dimethyl-6-((2-(phenylsulfonyl)ethyl)thio)benzo[c][1,2,5]oxasilaborol-3(1H)-ol] | 101.2±1.7 % of control ± SD | 95.3±1.0 % of control ± SD | 93.5±2.1 % of control ± SD | 84.0±1.5 % of control ± SD | 68.5±4.9 % of control ± SD | 38.8±4.8 % of control ± SD | 3.4±0.9 % of control ± SD | 122 (≈ 294 µM) | > 400 | > 400 | 12.5 (≈ 30.2 µM) | 6.25 (≈ 15.1 µM) | 400 (≈ 965 µM) | 30 | 12.5 (≈ 30.2 µM) | 3.12 (≈ 7.53 µM) | 200 (≈ 483 µM) | -fold reduction of MIC in the presence of PAβN ([2]; K. pneumoniae ATCC 13883): 4 -fold
CC(=O)CSc1ccc2c(c1F)[Si](C)(C)OB2O [Compound 22, 1-((7-Fluoro-3-hydroxy-1,1-dimethyl-1,3-dihydrobenzo[c][1,2,5]oxasilaborol-6-yl)thio)propan-2-one] | 92.1±0.1 % of control ± SD | 91.5±2.5 % of control ± SD | 85.2±1.1 % of control ± SD | 94.4±2.1 % of control ± SD | 78.4±4.5 % of control ± SD | 69.6±3.7 % of control ± SD | 41.4±0.4 % of control ± SD | > 200 | > 400 | > 400 | 200 (≈ 704 µM) | 6.25 (≈ 22 µM) | – | 25 | 200 (≈ 704 µM) | 1.56 (≈ 5.49 µM) | – | –
C[Si]1(C)OB(O)c2ccc(SCC(=O)c3ccccc3)c(F)c21 [Compound 23, 2-((7-Fluoro-3-hydroxy-1,1-dimethyl-1,3-dihydrobenzo[c][1,2,5]oxasilaborol-6-yl)thio)-1-phenylethan-1-one] | 99.3±8.4 % of control ± SD | 94.3±0.1 % of control ± SD | 83.3±4.4 % of control ± SD | 85.9±5.1 % of control ± SD | 64.2±3.6 % of control ± SD | 32.0±0.3 % of control ± SD | 1.0±1.3 % of control ± SD | 126 (≈ 364 µM) | > 400 | > 400 | 6.25 (≈ 18 µM) | 3.12 (≈ 9.01 µM) | 100 (≈ 289 µM) | 31 | 3.12 (≈ 9.01 µM) | 1.56 (≈ 4.51 µM) | 200 (≈ 578 µM) | –
CCOP(=O)(OCC)Sc1c(F)cc2c(c1F)[Si](C)(C)OB2O [Compound 24, S-(5,7-Difluoro-3-hydroxy-1,1-dimethyl-1,3-dihydrobenzo[c][1,2,5]oxasilaborol-6-yl) O,O-diethyl phosphorothioate] | 95.5±1.4 % of control ± SD | 83.9±0.1 % of control ± SD | 81.6±2.6 % of control ± SD | 78.2±3.0 % of control ± SD | 73.0±4.0 % of control ± SD | 76.5±3.8 % of control ± SD | 60.5±3.8 % of control ± SD | > 400 | – | – | – | – | – | 32 | – | – | – | MIC [2]: > 400 µg/mL; MIC [3]: > 400 µg/mL; MIC ([4]; MRSA): 6.25 µg/mL (≈ 16.4 µM); MBC ([4]; MRSA, read-out: MBC (first MBC where Eagle effect)): 12.5 µg/mL (≈ 32.7 µM); MBC ([4]; MRSA, read-out: second MBC (Eagle effect)): 400 µg/mL (≈ 1050 µM); MIC [5]: 6.25 µg/mL (≈ 16.4 µM); MBC ([5]; read-out: MBC (first MBC where Eagle effect)): 12.5 µg/mL (≈ 32.7 µM); MBC ([5]; read-out: second MBC (Eagle effect)): > 400 µg/mL
C[Si]1(C)OB(O)c2ccc(SC(=O)c3ccc(C(F)(F)F)cc3)c(F)c21 [Compound 25, S-(7-Fluoro-3-hydroxy-1,1-dimethyl-1,3-dihydrobenzo[c][1,2,5]oxasilaborol-6-yl) 4-(trifluoromethyl)benzothioate] | – | – | – | – | – | – | – | 112 (≈ 279 µM) | > 50 | 50 (≈ 125 µM) | 50 (≈ 125 µM) | 25 (≈ 62.5 µM) | – | 11 | 25 (≈ 62.5 µM) | 12.5 (≈ 31.2 µM) | – | –
C[Si]1(C)OB(O)c2cc(F)c(S(=O)(=O)Nc3ccc(F)cc3)c(F)c21 [Compound 28, 5,7-Difluoro-N-(4-fluorophenyl)-3-hydroxy-1,1-dimethyl-1,3-dihydrobenzo[c][1,2,5]oxasilaborole-6-sulfonamide] | 93.3±1.9 % of control ± SD | 82.6±1.2 % of control ± SD | 75.1±5.4 % of control ± SD | 65.5±1.8 % of control ± SD | 47.7±3.7 % of control ± SD | 32.5±0.0 % of control ± SD | 15.6±0.1 % of control ± SD | 74.9 (≈ 193 µM) | > 400 | > 400 | – | – | – | 22 | – | 50 (≈ 129 µM) | – | –
